Test results: the supplement of paper PMC10307832

What was measured:
Assay in all cases: relative viability (nuclei count vs DMSO), 5 days (fraction); higher = more cells survive
[1] = test system: Calu-6
Procedure, shortened: (§1)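 Dosing by pin tool came one day after lung cancer cell lines were seeded in 1536-well plates, using either one drug or a fixed anchor-drug dose plus five library-drug doses (not always all listed) in √10 steps. After 5 days, nuclei were counted on 4× images. Relative viability is treated-well nuclei count divided by vehicle-well nuclei count, and values are medians of duplicate plates.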

[2] = test system: NCI-H596
Procedure, shortened: as §1

[3] = test system: A549
Procedure, shortened: as §1

[4] = test system: NCI-H23
Procedure, shortened: as §1

[5] = test system: IA-LM
Procedure, shortened: as §1

[6] = test system: NCI-H1299
Procedure, shortened: as §1

[7] = test system: EBC-1
Procedure, shortened: as §1

[8] = test system: NCI-H1703
Procedure, shortened: as §1

[9] = test system: NCI-H1993
Procedure, shortened: as §1

Q: Which relative viability ([1]; first compound 0.005 µM) does the source give for CC1(C)CCC(c2ccc(Cl)cc2)=C(CN2CCN(c3ccc(C(=O)NS(=O)(=O)c4ccc(N[C@H](CCN5CCOCC5)CSc5ccccc5)c(S(=O)(=O)C(F)(F)F)c4)cc3)CC2)C1 [Navitoclax] + C[C@]1(O)C[C@@H](c2nc(-c3ccc4ccc(-c5ccccc5)nc4c3)c3c(N)nccn32)C1 [Linsitinib] (partner 1 µM) here?
A: The relative viability was 0.927.

Q: And the relative viability ([1]; first compound 0.01581 µM)?
A: Its relative viability is 0.984.

Q: And the relative viability ([1]; first compound 0.05 µM)?
A: The relative viability was 0.965.

Q: What about the relative viability ([1]; first compound 0.1581 µM) of the same molecule?
A: The relative viability was 0.903.

Q: What about the relative viability ([1]; first compound 0.5 µM) of the same molecule?
A: The relative viability was 0.918.

Q: What about the relative viability ([2]; first compound 0.005 µM) of the same molecule?
A: The relative viability was 1.09.

Q: What about the relative viability ([2]; first compound 0.01581 µM) of the same molecule?
A: Its relative viability is 1.09.

Q: And the relative viability ([2]; first compound 0.05 µM)?
A: Its relative viability is 0.722.

Q: What about the relative viability ([2]; first compound 0.1581 µM) of the same molecule?
A: The relative viability was 1.

Q: What about the relative viability ([2]; first compound 0.5 µM) of the same molecule?
A: Its relative viability is 1.02.

Q: And the relative viability ([3]; first compound 0.005 µM)?
A: The relative viability was 0.681.

Q: And the relative viability ([3]; first compound 0.01581 µM)?
A: Its relative viability is 0.669.

Q: And the relative viability ([3]; first compound 0.05 µM)?
A: Its relative viability is 0.511.

Q: And the relative viability ([3]; first compound 0.1581 µM)?
A: The relative viability was 0.558.

Q: What about the relative viability ([3]; first compound 0.5 µM) of the same molecule?
A: The relative viability was 0.591.

Q: And the relative viability ([4]; first compound 0.005 µM)?
A: The relative viability was 0.628.

Q: And the relative viability ([4]; first compound 0.01581 µM)?
A: The relative viability was 0.691.

Q: And the relative viability ([4]; first compound 0.05 µM)?
A: The relative viability was 0.559.

Q: And the relative viability ([4]; first compound 0.1581 µM)?
A: The relative viability was 0.509.

Q: And the relative viability ([4]; first compound 0.5 µM)?
A: The relative viability was 0.642.

Q: And the relative viability ([5]; first compound 0.005 µM)?
A: Its relative viability is 0.551.

Q: What about the relative viability ([5]; first compound 0.01581 µM) of the same molecule?
A: The relative viability was 0.793.

Q: What about the relative viability ([5]; first compound 0.05 µM) of the same molecule?
A: The relative viability was 0.537.

Q: What about the relative viability ([5]; first compound 0.1581 µM) of the same molecule?
A: The relative viability was 0.587.

Q: What about the relative viability ([5]; first compound 0.5 µM) of the same molecule?
A: Its relative viability is 0.654.

Q: And the relative viability ([6]; first compound 0.005 µM)?
A: The relative viability was 0.949.

Q: And the relative viability ([6]; first compound 0.01581 µM)?
A: Its relative viability is 1.

Q: What about the relative viability ([6]; first compound 0.05 µM) of the same molecule?
A: Its relative viability is 0.878.

Q: What about the relative viability ([6]; first compound 0.1581 µM) of the same molecule?
A: The relative viability was 0.981.

Q: What about the relative viability ([6]; first compound 0.5 µM) of the same molecule?
A: The relative viability was 0.984.

Q: What about the relative viability ([7]; first compound 0.005 µM) of the same molecule?
A: The relative viability was 0.893.

Q: What about the relative viability ([7]; first compound 0.01581 µM) of the same molecule?
A: The relative viability was 1.09.

Q: And the relative viability ([7]; first compound 0.05 µM)?
A: The relative viability was 0.974.

Q: What about the relative viability ([7]; first compound 0.1581 µM) of the same molecule?
A: Its relative viability is 1.05.

Q: And the relative viability ([7]; first compound 0.5 µM)?
A: The relative viability was 0.86.

Q: And the relative viability ([8]; first compound 0.005 µM)?
A: The relative viability was 0.935.

Q: What about the relative viability ([8]; first compound 0.01581 µM) of the same molecule?
A: The relative viability was 1.

Q: What about the relative viability ([8]; first compound 0.05 µM) of the same molecule?
A: The relative viability was 1.19.

Q: And the relative viability ([8]; first compound 0.1581 µM)?
A: The relative viability was 1.

Q: And the relative viability ([8]; first compound 0.5 µM)?
A: The relative viability was 0.813.

Q: What about the relative viability ([9]; first compound 0.005 µM) of the same molecule?
A: The relative viability was 0.721.

Q: And the relative viability ([9]; first compound 0.01581 µM)?
A: Its relative viability is 0.752.

Q: And the relative viability ([9]; first compound 0.05 µM)?
A: The relative viability was 0.706.

Q: What about the relative viability ([9]; first compound 0.1581 µM) of the same molecule?
A: The relative viability was 0.672.

Q: And the relative viability ([9]; first compound 0.5 µM)?
A: Its relative viability is 0.675.

Q: For CC1(C)CCC(c2ccc(Cl)cc2)=C(CN2CCN(c3ccc(C(=O)NS(=O)(=O)c4ccc(N[C@H](CCN5CCOCC5)CSc5ccccc5)c(S(=O)(=O)C(F)(F)F)c4)cc3)CC2)C1 [Navitoclax] + CS(=O)(=O)N1CCN(Cc2cc3nc(-c4cccc5[nH]ncc45)nc(N4CCOCC4)c3s2)CC1 [Pictilisib] (partner 1 µM), which relative viability ([1]; first compound 0.005 µM) is on record?
A: Its relative viability is 0.891.

Q: What about the relative viability ([1]; first compound 0.01581 µM) of the same molecule?
A: The relative viability was 1.03.

Q: What about the relative viability ([1]; first compound 0.05 µM) of the same molecule?
A: The relative viability was 1.01.

Q: And the relative viability ([1]; first compound 0.1581 µM)?
A: Its relative viability is 0.775.

Q: What about the relative viability ([1]; first compound 0.5 µM) of the same molecule?
A: Its relative viability is 0.752.

Q: What about the relative viability ([2]; first compound 0.005 µM) of the same molecule?
A: Its relative viability is 0.405.

Q: And the relative viability ([2]; first compound 0.01581 µM)?
A: Its relative viability is 0.399.

Q: And the relative viability ([2]; first compound 0.05 µM)?
A: Its relative viability is 0.398.

Q: What about the relative viability ([2]; first compound 0.1581 µM) of the same molecule?
A: The relative viability was 0.308.

Q: And the relative viability ([2]; first compound 0.5 µM)?
A: Its relative viability is 0.218.

Q: And the relative viability ([3]; first compound 0.005 µM)?
A: The relative viability was 0.418.

Q: And the relative viability ([3]; first compound 0.01581 µM)?
A: The relative viability was 0.425.

Q: And the relative viability ([3]; first compound 0.05 µM)?
A: The relative viability was 0.685.

Q: What about the relative viability ([3]; first compound 0.1581 µM) of the same molecule?
A: The relative viability was 0.51.

Q: And the relative viability ([3]; first compound 0.5 µM)?
A: The relative viability was 0.504.

Q: What about the relative viability ([4]; first compound 0.005 µM) of the same molecule?
A: Its relative viability is 0.479.

Q: And the relative viability ([4]; first compound 0.01581 µM)?
A: The relative viability was 0.498.

Q: And the relative viability ([4]; first compound 0.05 µM)?
A: Its relative viability is 0.483.

Q: And the relative viability ([4]; first compound 0.1581 µM)?
A: Its relative viability is 0.433.

Q: And the relative viability ([4]; first compound 0.5 µM)?
A: The relative viability was 0.504.

Q: What about the relative viability ([5]; first compound 0.005 µM) of the same molecule?
A: The relative viability was 0.466.

Q: What about the relative viability ([5]; first compound 0.01581 µM) of the same molecule?
A: The relative viability was 0.321.

Q: And the relative viability ([5]; first compound 0.05 µM)?
A: The relative viability was 0.404.

Q: And the relative viability ([5]; first compound 0.1581 µM)?
A: The relative viability was 0.457.

Q: And the relative viability ([5]; first compound 0.5 µM)?
A: The relative viability was 0.292.

Q: What about the relative viability ([6]; first compound 0.005 µM) of the same molecule?
A: Its relative viability is 0.717.

Q: What about the relative viability ([6]; first compound 0.01581 µM) of the same molecule?
A: Its relative viability is 0.943.

Q: What about the relative viability ([6]; first compound 0.05 µM) of the same molecule?
A: Its relative viability is 0.874.

Q: And the relative viability ([6]; first compound 0.1581 µM)?
A: The relative viability was 0.822.

Q: And the relative viability ([6]; first compound 0.5 µM)?
A: The relative viability was 0.819.

Q: What about the relative viability ([7]; first compound 0.005 µM) of the same molecule?
A: Its relative viability is 0.411.

Q: And the relative viability ([7]; first compound 0.01581 µM)?
A: The relative viability was 0.378.

Q: And the relative viability ([7]; first compound 0.05 µM)?
A: The relative viability was 0.448.

Q: What about the relative viability ([7]; first compound 0.1581 µM) of the same molecule?
A: The relative viability was 0.575.

Q: What about the relative viability ([7]; first compound 0.5 µM) of the same molecule?
A: Its relative viability is 0.138.

Q: And the relative viability ([8]; first compound 0.005 µM)?
A: The relative viability was 0.244.

Q: And the relative viability ([8]; first compound 0.01581 µM)?
A: The relative viability was 0.28.

Q: What about the relative viability ([8]; first compound 0.05 µM) of the same molecule?
A: The relative viability was 0.263.

Q: What about the relative viability ([8]; first compound 0.1581 µM) of the same molecule?
A: The relative viability was 0.239.

Q: And the relative viability ([8]; first compound 0.5 µM)?
A: Its relative viability is 0.245.

Q: What about the relative viability ([9]; first compound 0.005 µM) of the same molecule?
A: The relative viability was 0.808.

Q: What about the relative viability ([9]; first compound 0.01581 µM) of the same molecule?
A: Its relative viability is 0.853.

Q: What about the relative viability ([9]; first compound 0.05 µM) of the same molecule?
A: Its relative viability is 0.803.

Q: What about the relative viability ([9]; first compound 0.1581 µM) of the same molecule?
A: The relative viability was 0.792.

Q: What about the relative viability ([9]; first compound 0.5 µM) of the same molecule?
A: The relative viability was 0.925.
